In US9474774B2, “Pyridine alkaloids, preparation process thereof, and the uses of the pyridine alkaloids” (FOOD INDUSTRY RESEARCH AND DEVELOPMENT INSTITUTE, priority 2010, dated 2016):
Values joined by “and” are separate entries in the source; they are usually repeats but may differ in a detail not shown here. Equal values may be shown once. Read-outs that look alike come from different tables or passages of the source. Each block holds one molecule with its values, some of them ahead of it.

Tests used:
[1] = tested on: 3T3-L1 preadipocytes; assay: 3T3-L1 preadipocyte differentiation, DMI differentiation model; format: cell-based; conditions: for triglyceride droplets under inverted microscope: 5 μg/ml, vs DMI control; for TG (%): sample concentration 5 μg/ml, control = 100
Experimental: (§1) Preadipocytes were prepared according to the method described by Waki et al., (2007, “The small molecule harmine is an antidiabetic cell-type-specific regulator of PPARγ expression.” Cell Metabolism, 5(5): 357-370) and Huang et al., (2005, “Herbal or natural medicines as modulators of peroxisome proliferator-activated receptors and related nuclear receptors for therapy of metabolic syndrome.” Basic and Clinical Pharmacology and Toxicology, 96: 3-14.). Preadipocytes were cultured in DMEM (Dulbecco's Modified Eagle's Medium-high glucose, Sigma D-7777) containing 10% of fetal bovine serum (FBS) and incubated at 37° C. in a 5% CO2 incubator.
(§2) Before the differentiation induction experiments, the cells were plated into either 96- or 24-well plates (the concentration of cells in each well was about 2×10^4/cm^2). The plates were incubated for about two days to allow the cells to proliferate to confluence, and then maintained for another two days. The medium was changed to different differentiation media according to different experiments. The day of switching to differentiation medium was designated as day zero.
The differentiation medium used in DMI differentiation model comprised an three-in-one differentiation inducer (DMI): dexamethasone (Sigma D-4902, dissolved in ethanol to produce a 0.25M stock solution), isobutyl-methylxanthine (Sigma 1-5879, dissolved in DMSO to produce a 0.5M stock solution), and insulin (Sigma I-6634, dissolved in 0.01N HCl to produce a 10 mg/ml stock solution). The final concentrations of dexamethasone, isobutyl-methylxanthine and insulin were 0.25 μM, 0.5 mM and 5 μg/ml, respectively.
The four test compounds, Monasnicotinates A, B, C and D, were dissolved in DMSO respectively to produce a 5 mg/ml stock solution. One ml of the differentiation medium containing test sample was added to each well of the 24-well 3T3-L1 preadipocyte plates (the final concentration of the sample in each well was 5 μg/ml). The control group was the culture with only the differentiation medium and no sample. The cultures were incubated at 37° C. in a 5% CO2 incubator for three days, and then the medium was replaced by DMEM with 10% FBS. The cultures were maintained until day 9 or day 10, and the amounts of triglyceride in the cells were analyzed. The extents of differentiation (the amounts of oil droplets) were also examined under an inverted microscope.
(§3) The 96-well plates were rinsed with PBS, and 200 μl of PBS and 5 μl of AdipoRed reagent (Lonze Walkersville, Inc., Walkersville, Md., USA, Catalog No. PT-7009) were added to each well. After 10 to 15 minutes, the plates were read with a spectrofluorometer (Infinite M200) set at an excitation wavelength of 485 nm and an emission wavelength of 572 nm. The fluorescent data of the experiment group was divided by the fluorescent data of the control group to obtain a percentage of induction activity.
(§4) The 24-well plates were rinsed with PBS, and the cells were washed off with 0.1 ml of 1% Triton λ 100 per well. The cells were then frozen, thawed and centrifuged (10,000 rpm/5 min) and the supernatant were collected. An aliquot of 0.05 ml of the supernatant was analyzed using Triglycerol assay Kit (Audit Diagnostics, Ltd.).
(§5) The protein amounts were analyzed using Bio-Rad Dc Protein assay reagent (Bio-Rad). The triglyceride concentration was divided by the protein concentration obtained using Bio-Rad Dc Protein assay to calculated the amount (μg) of triglyceride per μg protein. The triglyceride amounts of the experiment groups were divided by those of the control groups to determine the differentiation induction activity of the samples.
(§6) 3T3-L1 preadipocytes differentiation assay was conduct according to Example 5.

[2] = tested on: 3T3-L1 preadipocytes; assay: 3T3-L1 preadipocyte differentiation, insulin differentiation model; format: cell-based; conditions: sample concentration 2 μg/ml, control = 100
Experimental: as §1, §2
The differentiation medium used in insulin differentiation model was DMEM with 10% FBS comprising 10 μg/ml of insulin. Differentiation media containing each of the four test compounds, Monasnicotinates A, B, C and D, were added to each well of the 24- or 96-well 3T3-L1 preadipocyte plates (the final concentration of the test compounds in each well is 2 μg/ml). The control group was the culture with only the differentiation medium and no sample. The cultures were incubated at 37° C. in a 5% CO2 incubator for seven days (during the period, the differentiation medium and sample were replaced with fresh ones twice), and then the medium was replaced by DMEM with 10% FBS. The cultures were maintained until day 9 or day 10. The cells of the experiment groups and control groups at day 9 or day 10 were stained with AdipoRed and the concentrations of triglyceride were analyzed.
as §3, §4, §5, §6

[3] = tested on: RAW264.7; assay: MTT cell viability assay; format: cell-based, murine
Experimental: (§7) The murine macrophage cell line RAW264.7 (BCRC 60001=ATCC TIB-71) was cultured in Dulbecco's modified Eagle's medium (DMEM, Gibco BRL Life Technologies, Inc.) supplemented with 10% heat inactivated fetal bovine serum (FBS) and incubated at 37° C. in a humidified 5% CO2 atmosphere with a 96-well flat-bottomed culture plate. After 24 hours, the condition medium was replaced with fresh DMEM and FBS. Then the three test compounds, Monasnicotinates A, C and D, (0, 1, 5, 10, and 20 μg/mL) were added respectively in the presence of lipopolysaccharide (LPS, 1 μg/mL; Sigma, Cat no: L-2654), and the plates were incubated at the same condition for 24 hours.
(§8) The cultured cells were then centrifuged and the supernatants were used for NO production measurement, with a MTT (3-(4,5-dimethylthiazol-2yl)-2,5-diphenyl tetrazolium bromide) assay to determine cell viability. The supernatant was mixed with an equal volume of the Griess reagent (1% sulfanilamide, 0.1% N-(1-naphthyl)ethyl-enediamine dihydrochloride in 2.5% phosphoric acid solution) and incubated for 10 min at room temperature. Nitrite concentration was determined by measuring the absorbance at 540 nm using an ELISA plate reader (μ Quant) (see Mosman, T., 1983, “Rapid colorimetric assay for cellular growth and survival: application to proliferation and cytotoxicity assays.” J. Immunol. Methods, 65: 55-63). The MTT colorimetric assay was modified from that of Mosmann (see Johansson, M., et al., 2002, “Biologically active secondary metabolites from the ascomycete A111-95.” J. Antibiot., 55: 104-106). The test is based upon the selective ability of living cells to reduce the yellow soluble salt, MTT, to a purple-blue insoluble formazan. MTT (Merck; dissolved in phosphate-buffered saline at 5 mg/mL) solution was added onto the attached cells mentioned above (10 μl per 100 μl culture) and incubated at 37° C. for 4 hours. Then, DMSO was added and the amount of colored formazan metabolite formed was determined by absorbance at 550 nm. The optical density of formazan formed in control (untreated) cells was taken as 100% viability.

[4] = molecular target: T1, PPARγ (Homo sapiens, UniProt P37231); assay: LanthaScreen TR-FRET PPARγ competitive binding assay
T1 construct: purchased Invitrogen
T1 sequence (P37231 204-505 limits assumed): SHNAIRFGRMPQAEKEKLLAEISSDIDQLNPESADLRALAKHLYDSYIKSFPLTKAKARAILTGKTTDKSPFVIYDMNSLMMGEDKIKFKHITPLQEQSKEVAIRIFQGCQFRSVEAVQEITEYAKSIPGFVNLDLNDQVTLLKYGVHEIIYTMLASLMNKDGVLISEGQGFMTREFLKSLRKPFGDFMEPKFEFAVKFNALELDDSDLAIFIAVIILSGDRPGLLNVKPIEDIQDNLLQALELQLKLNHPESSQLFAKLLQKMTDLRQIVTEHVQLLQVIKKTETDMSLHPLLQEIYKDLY
Experimental: Monasnicotinates A, B, C and D were prepared according to Example 3 and Ethanol and ethyl acetate extracts of BCRC 930146-fermented rice were prepared according to Example 7. The binding activity of Monasnicotinates A, B, C and D and ethanol and ethyl acetate extracts of BCRC 930146-fermented rice to PPARγ and PPARα were analyzed using competitive binding assay kits (LanthaScreen TR-FRET PPARγ Binding Assay and Invitrogen PPARα Competitive Binding Assay) according to their instructions. Troglitazone and arachidonic acid were used as reference substances for PPARγ and PPARα ligand, respectively.

[5] = tested on: adiponectin; assay: Cytosolic adiponectin ELISA in differentiated 3T3-L1 cells; format: cell-based, Mouse; conditions: insulin model and DMI model, 5 μg/mL (FIG. 7)
Experimental: 3T3-L1 cells were treated with Monasnicotinates A, B, C and D (prepared in Example 3) as described in Example 5. Nuclear and cytosolic proteins of the differentiated 3T3-L1 cells were extracted and the nuclear PPARγ and cytosolic adiponectin contents were analyzed using commercial kits.
(§9) 3T3-L1 cells were incubated and differentiated on petri dish (9 cm) for 9 days and washed with PBS. 1 ml of buffer A working solution (Affymetrix® Nuclear Extraction Kits, Panomics, Inc.; freshly prepared according to the instructions) was added to the petri dish, and the petri dish was placed on ice and shaken for 10 minutes on a shaker. Cells on the petri dish were transferred to a 1.5 ml centrifuge tube and centrifuged at 14,000 rpm for 3 minutes. The supernatant, the cytosol fraction, was collected for further analysis. 0.5 ml of buffer B working solution (Affymetrix® Nuclear Extraction Kits, Panomics, Inc.; freshly prepared according to the instructions) was added to the centrifuge tube to re-suspend the cell pellet and the centrifuge tube was placed on ice and shaken for two hours on a shaker. The centrifuge tube was then centrifuged at 14,000 rpm for 5 minutes. The supernatant, the nucleus fraction, was collected for further analysis.
Cytosolic adiponectin in the cytosol fraction was analyzed using Quantikine Mouse Adiponectin immunoassay (R&D systems) according to the instructions.

[6] = tested on: LPS-stimulated macrophage cells RAW264.7; assay: Inhibition of NO production induced by LPS (Griess reagent); format: cell-based, murine; conditions: Mus musculus, LPS 1 μg/mL, 24 hours
Experimental: as §7, §8

[7] = tested on: PPARγ; assay: Nuclear PPARγ ELISA in differentiated 3T3-L1 cells; format: cell-based; conditions: final sample concentration 5 μg/mL, control: medium only
Experimental: Nuclear and cytosolic proteins of the differentiated 3T3-L1 cells were extracted and the nuclear PPARγ and cytosolic adiponectin contents were analyzed using commercial kits.
as §9
Nuclear PPARγ in the nucleus fraction was analyzed using Transcription Factor PPARγ ELISA Kit (Panomics, Inc.) according to the instructions.

[8] = tested on: LPS-stimulated macrophage cells RAW264.7; conditions: literature value; read-out: IC50, production of NO by LPS-stimulated RAW264.7 (reported, Motai and Kitanaka 2005); cited from earlier work

IC50 [4]: 42 µM
Structure (SMILES): C/C=C/c1cc(/C=C(\CC(=O)CCCCC)C(C)=O)c(C(=O)OC)cn1 [Monasnicotinate A, methyl-4-((E)-2-acetyl-4-oxonon-1-enyl)-6-((E)-prop-1-enyl)nicotinate]
triglyceride droplets under inverted microscope [1]: more triglyceride droplets than the control culture | TG (%) [1]: 159% | AdipoRed (%) [2]: 159% | TG (%) [2]: 128% | Cytotoxicity (MTT assay) ([3]; 1-10 μg/mL, with LPS treatment for 24 hours): did not show any significant cytotoxicity | concentration of cytosolic adiponectin [5]: increase | IC50 [6]: 5.72 µg/mL and 16 µM | PPARγ expression (% of control) ([7]; DMI model): 100 ± 7 % of control | PPARγ expression (% of control) ([7]; Insulin model): 139 ± 1 % of control

IC50 [4]: 11 µM
Structure (SMILES): C/C=C/c1cc(/C=C(\CC(=O)CCCCC)C(C)=O)c(C(=O)OCC)cn1 [Monasnicotinate B, ethyl-4-((E)-2-acetyl-4-oxonon-1-enyl)-6-((E)-prop-1-enyl)nicotinate]
triglyceride droplets under inverted microscope [1]: more triglyceride droplets than the control culture | TG (%) [1]: 175% | AdipoRed (%) [2]: 287% | TG (%) [2]: 132% | concentration of cytosolic adiponectin [5]: increase | PPARγ expression (% of control) ([7]; DMI model): 147 ± 2 % of control | PPARγ expression (% of control) ([7]; Insulin model): 237 ± 9 % of control

IC50 [4]: 18.2 µM
Structure (SMILES): C/C=C/c1cc(/C=C(\CC(=O)CCCCCCC)C(C)=O)c(C(=O)OC)cn1 [Monasnicotinate C, methyl-4-((E)-2-acetyl-4-oxoundec-1-enyl)-6-((E)-prop-1-enyl)nicotinate]
triglyceride droplets under inverted microscope [1]: more triglyceride droplets than the control culture | TG (%) [1]: 132% | AdipoRed (%) [2]: 209% | TG (%) [2]: 145% | Cytotoxicity (MTT assay) ([3]; at 10 μg/mL): significant cytotoxic effect | concentration of cytosolic adiponectin [5]: increase | PPARγ expression (% of control) ([7]; DMI model): 115 ± 1 % of control | PPARγ expression (% of control) ([7]; Insulin model): 333 ± 15 % of control

IC50 [4]: 64.5 µM
Structure (SMILES): CCCCCC(=O)C/C(=C\c1cc(CCC)ncc1C(=O)OC)C(C)=O [Monasnicotinate D, (E)-methyl-4-(2-acetyl-4-oxonon-1-enyl)-6-propylnicotinate]
triglyceride droplets under inverted microscope [1]: more triglyceride droplets than the control culture | TG (%) [1]: 204% | AdipoRed (%) [2]: 247% | TG (%) [2]: 169% | Cytotoxicity (MTT assay) ([3]; 1-20 μg/mL, with LPS treatment for 24 hours): did not show any significant cytotoxicity | concentration of cytosolic adiponectin [5]: increase | IC50 [6]: 9.4 µg/mL and 24.8 µM | PPARγ expression (% of control) ([7]; DMI model): 166 ± 5 % of control | PPARγ expression (% of control) ([7]; Insulin model): 424 ± 19 % of control

Structure (SMILES): O=c1c(O)c(-c2ccc(O)c(O)c2)oc2cc(O)cc(O)c12 [quercetin, reference compound]
IC50 [6]: 26.4 µM | IC50 [8]: 26.8 µM
